{"source": "patent US20200399335A1", "about": "“MODIFIED IMMUNOMODULATORY PEPTIDE” (Aarhus Universitet, priority 2018, published 2020)", "key": {"STING activation [1]": {"test_system": "STING activation", "conditions": "previously shown; no details given; cited from earlier work"}, "STING activation [2]": {"test_system": "STING activation", "conditions": "PBMCs of two donors with wildtype STING, peptide priming then HT-DNA, 20 hours; vs parental SEQ ID NO.6", "description": "Both donors carried STING wildtype proteins allowing us to evaluate important amino acid positions within the polypeptide.\n(§1) Peripheral Blood Mononuclear cells (PBMCs) were isolated from healthy donors by Ficoll Paque gradient centrifugation (GE Healthcare). PBMCs were cultured in RPMI complete supplemented with IL-2.\n(§2) To quantify functional type I IFN the reporter cell line HEK-Blue™ IFN-α/β (InvivoGen) was utilized according to the manufacturer's instructions. […] This cell line expresses secreted embryonic alkaline phosphatase under the control of the IFN-α/β inducible ISG54 promotor. SEAP activity was assessed by measuring optical density (OD) at 620 nm on a micro plate reader (ELx808, BioTEK). The standard range was made with IFN-α (A2) (PBL Assay Science).\n(§3) Protein levels of the cytokines CXCL10 and IL6 in supernatants, were measured using DuoSet ELISA kits from RnD following the manufacturer's instructions."}, "STING activation [3]": {"test_system": "STING activation", "assay": "Screening of alanine modified peptides in PMA-differentiated THP1 cells stimulated with 2′3′cGAMP", "conditions": "PMA-treated THP1 (STING HAQ), peptide pre-stimulation 1 hour, then 2′3′cGAMP, supernatant 20 hours; alanine variant vs SEQ ID NO.6", "excerpt": "Screening of alanine modified peptides in THP1 cells. […] THP1 cells were differentiated into macrophages using PMA. […] Twenty hours later supernatants were harvest and used to assess the production of type I IFN (A) or CXCL10 (B). Data represent the mean±SD of biological triplicates, representative of two independent experiments\nas §2, §3"}, "HSV-1 GFP": {"test_system": "HSV-1 GFP", "assay": "HSV-1 GFP infection of human fibroblast, flow cytometry 48 hpi", "conditions": "for viral inhibition of alanine variant compared with SEQ ID NO.6 / viral inhibition: HSV-1 GFP MOI 0.05, 48 hpi", "excerpt": "Screening of alanine modified peptides in human fibroblasts.\nData was processed in FlowJo (Tree Star)"}, "[4]": {"assay": "Circular dichroism spectrum of polypeptides", "format": "physicochemical", "conditions": "in the recommended buffer", "source_text": "FIG. 5. CD spectra of polypeptides with specific alanine mutations.\nThe Example illustrate the CD spectrum of polypeptide (SEQ ID NO. 6) and two alanine mutations (SEQ ID NO. 17 and 19). […] FIG. 5."}, "STING activity": {"test_system": "STING activity", "conditions": "PBMCs from two donors, peptide pre-treatment then cGAMP; vs peptide 101", "description": "as §1, §2, §3"}, "human fibroblast": {"test_system": "human fibroblast", "assay": "Cell viability test in human fibroblast (CellTiter-Glo)", "format": "cell-based", "conditions": "48 hpi", "experimental": "FIG. 8. Cell viability test. […] As a positive control for cell death, human fibroblast was treated with staurosporine (500 nM). Cell viability was analyzed 48 hpi.\nThe highest peptide concentration utilized in the present studies reached a maximum cell death percentage of less than 10%; cf. FIG. 8.\nViability tests were conducted using the CellTiter-Glo® 2.0 Assay (Promega, G9242). Each sample was conducted in technical triplicates and luminescence data analyzed."}}, "note": "Where no end group is shown, it is not given here. The star is where a group is joined. Biotin = O=C1N[C@H]2[C@H](CS[C@H]2CCCCC(=O)*)N1"}
{"substance": "Biotin-EDIPTLEDLAETLKKEKLKGRKKRRQRRRPQ-NH2 [S7]", "values": [{"measurement": "synergistic effects on STING activation", "setting": "STING activation [1]", "value": "not to lead to synergistic effects on STING activation"}]}
{"substance": "KAYKNIVLLKGLEVINDYHF ((1)..(20) An immunomodulatory polypeptide derived from the pyrin domain of human IFI16 with amino acid residue changes.) [peptide A2]", "values": [{"measurement": "secretion of interleukin IL6", "setting": "STING activation [2]", "value": "very potent and synergistic effect"}, {"measurement": "secretion of the chemokine CXCL10", "setting": "STING activation [2]", "value": "partly impaired CXCL10"}, {"measurement": "synergistic effect of supporting STING activation: induction of type I IFNs", "setting": "STING activation [3]", "value": "affected polypeptide synergistic effects"}]}
{"substance": "KKAKNIVLLKGLEVINDYHF ((1)..(20) An immunomodulatory polypeptide derived from the pyrin domain of human IFI16 with amino acid residue changes.) [peptide A3]", "values": [{"measurement": "secretion of interleukin IL6", "setting": "STING activation [2]", "value": "very potent and synergistic effect"}]}
{"substance": "KKYKNAVLLKGLEVINDYHF ((1)..(20) An immunomodulatory polypeptide derived from the pyrin domain of human IFI16 with amino acid residue changes.) [peptide A6]", "values": [{"measurement": "viral inhibition of alanine variant compared with SEQ ID NO.6", "setting": "HSV-1 GFP", "value": "depleted"}, {"measurement": "secretion of interleukin IL6", "setting": "STING activation [2]", "value": "prohibited the synergistic effects"}, {"measurement": "synergistic effect of supporting STING activation: induction of type I IFNs", "setting": "STING activation [3]", "value": "affected polypeptide synergistic effects"}]}
{"substance": "KKYKNIALLKGLEVINDYHF ((1)..(20) An immunomodulatory polypeptide derived from the pyrin domain of human IFI16 with amino acid residue changes.) [peptide A7]", "values": [{"measurement": "viral inhibition of alanine variant compared with SEQ ID NO.6", "setting": "HSV-1 GFP", "value": "depleted"}, {"measurement": "secretion of interleukin IL6", "setting": "STING activation [2]", "value": "prohibited the synergistic effects"}]}
{"substance": "KKYKNIVALKGLEVINDYHF ((1)..(20) An immunomodulatory polypeptide derived from the pyrin domain of human IFI16 with amino acid residue changes.) [peptide A8]", "values": [{"measurement": "synergistic effect of supporting STING activation: induction of type I IFNs", "setting": "STING activation [3]", "value": "affected polypeptide synergistic effects"}]}
{"substance": "KKYKNIVLAKGLEVINDYHF ((1)..(20) An immunomodulatory polypeptide derived from the pyrin domain of human IFI16 with amino acid residue changes.) [peptide A9]", "values": [{"measurement": "synergistic effect of supporting STING activation: induction of type I IFNs", "setting": "STING activation [3]", "value": "affected polypeptide synergistic effects"}]}
{"substance": "KKYKNIVLLAGLEVINDYHF ((1)..(20) An immunomodulatory polypeptide derived from the pyrin domain of human IFI16 with amino acid residue changes.) [peptide A10]", "values": [{"measurement": "viral inhibition", "setting": "HSV-1 GFP", "value": "~100", "unit": "%"}, {"measurement": "antiviral effect compared with polypeptide NO. 6 at increased MOI", "setting": "HSV-1 GFP; HSV-1 GFP MOI 0.1, 25 μg/mL, 48 hpi", "value": "increased effect"}, {"measurement": "secretion of interleukin IL6", "setting": "STING activation [2]", "value": "damped IL6 secretion"}, {"measurement": "secretion of the chemokine CXCL10", "setting": "STING activation [2]", "value": "without affecting CXL10 responses"}, {"measurement": "type I IFN responses", "setting": "STING activation [2]", "value": "significantly increased type I IFN responses"}, {"measurement": "synergistic effect of supporting STING activation: induction of type I IFNs", "setting": "STING activation [3]", "value": "affected polypeptide synergistic effects"}]}
{"substance": "KKYKNIVLLKALEVINDYHF ((1)..(20) An immunomodulatory polypeptide derived from the pyrin domain of human IFI16 with amino acid residue changes.) [peptide A11]", "values": [{"measurement": "secondary structure from CD spectrum", "setting": "[4]", "value": "random coil-coil formation"}, {"measurement": "synergistic effect of supporting STING activation: CXCL10 cytokine secretion", "setting": "STING activation [3]", "value": "strongly affected the synergistic effects"}]}
{"substance": "KKYKNIVLLKGAEVINDYHF ((1)..(20) An immunomodulatory polypeptide derived from the pyrin domain of human IFI16 with amino acid residue changes.) [peptide A12]", "values": [{"measurement": "synergistic effect of supporting STING activation: induction of type I IFNs", "setting": "STING activation [3]", "value": "affected polypeptide synergistic effects"}]}
{"substance": "KKYKNIVLLKGLAVINDYAA ((1)..(20) An immunomodulatory polypeptide derived from the pyrin domain of human IFI16 with amino acid residue changes.) [peptide 107]", "values": [{"measurement": "CXCL10 secretion", "setting": "STING activity", "value": "supported increased IFN and CXCL10 secretion"}, {"measurement": "IFN secretion", "setting": "STING activity", "value": "supported increased IFN and CXCL10 secretion"}, {"measurement": "IL6 response", "setting": "STING activity", "value": "impaired the IL6 response"}]}
{"substance": "KKYKNIVLLKGLAVINDYHF ((1)..(20) An immunomodulatory polypeptide derived from the pyrin domain of human IFI16 with amino acid residue changes.) [peptide A13]", "values": [{"measurement": "secondary structure from CD spectrum", "setting": "[4]", "value": "random coil-coil formation"}, {"measurement": "secretion of the chemokine CXCL10", "setting": "STING activation [2]", "value": "without affecting CXL10 responses"}, {"measurement": "type I IFN responses", "setting": "STING activation [2]", "value": "significantly increased type I IFN responses"}, {"measurement": "synergistic effect of supporting STING activation: CXCL10 cytokine secretion", "setting": "STING activation [3]", "value": "strongly affected the synergistic effects"}, {"measurement": "synergistic effect of supporting STING activation: induction of type I IFNs", "setting": "STING activation [3]", "value": "affected polypeptide synergistic effects"}]}
{"substance": "KKYKNIVLLKGLEAINDYHF ((1)..(20) An immunomodulatory polypeptide derived from the pyrin domain of human IFI16 with amino acid residue changes.) [peptide A14]", "values": [{"measurement": "viral inhibition of alanine variant compared with SEQ ID NO.6", "setting": "HSV-1 GFP", "value": "decreased"}]}
{"substance": "KKYKNIVLLKGLEVANDYHF ((1)..(20) An immunomodulatory polypeptide derived from the pyrin domain of human IFI16 with amino acid residue changes.) [peptide A15]", "values": [{"measurement": "secretion of interleukin IL6", "setting": "STING activation [2]", "value": "prohibited the synergistic effects"}]}
{"substance": "KKYKNIVLLKGLEVIADYHF ((1)..(20) An immunomodulatory polypeptide derived from the pyrin domain of human IFI16 with amino acid residue changes.) [peptide A16]", "values": [{"measurement": "secretion of interleukin IL6", "setting": "STING activation [2]", "value": "prohibited the synergistic effects"}]}
{"substance": "KKYKNIVLLKGLEVINAYHF ((1)..(20) An immunomodulatory polypeptide derived from the pyrin domain of human IFI16 with amino acid residue changes.) [peptide A17]", "values": [{"measurement": "viral inhibition", "setting": "HSV-1 GFP", "value": "~100", "unit": "%"}]}
{"substance": "KKYKNIVLLKGLEVINDYAF ((1)..(20) An immunomodulatory polypeptide derived from the pyrin domain of human IFI16 with amino acid residue changes.) [peptide A19]", "values": [{"measurement": "synergistic effect of supporting STING activation: CXCL10 cytokine secretion", "setting": "STING activation [3]", "value": "strongly affected the synergistic effects"}]}
{"substance": "KKYKNIVLLKGLEVINDYHA ((1)..(20) An immunomodulatory polypeptide derived from the pyrin domain of human IFI16 with amino acid residue changes.) [peptide A20]", "values": [{"measurement": "synergistic effect of supporting STING activation: CXCL10 cytokine secretion", "setting": "STING activation [3]", "value": "strongly affected the synergistic effects"}]}
{"substance": "KKYKNIVLLKGLEVINDYHF-NH2 [peptide 101]", "values": [{"measurement": "toxicity in human fibroblast", "setting": "human fibroblast; HSV-1 GFP, HSV-2 GFP (MOI 0.05) or uninfected", "value": "no toxicity"}, {"measurement": "maximum cell death percentage", "setting": "human fibroblast; highest peptide concentration utilized (80 μg/mL)", "value": "less than 10%"}]}
